Laboratory results published in patent publication US7449495B2, “Retinoid derivatives with antiangiogenic, antitumoral and proapoptotic activities” (Sigma-Tau Industrie Farmaceutiche Riunite S.p.A., priority 2001, dated 2008).

What was measured:
[1] = test system: Human ovarian carcinoma A2780/Dx (drug resistant); experiment: Cytotoxicity test (sulphorodamine B), A2780/Dx; type: cell-based; conditions: 24 h incubation, survival 48 h after removal
Text: (§1) Different cell lines deriving from solid tumors were also used. • 1. Human prostate carcinoma PC3 and DU145. These cell lines were maintained in RPMI 1640 medium containing 10% FCS, 1% sodium pyruvate and 1% glutamine; • 2. Human colon adenocarcinoma LoVo. This cell line was maintained in HAM's F-12 medium, containing 10% FCS and 1% glutamine. • 3. Human ovarian carcinoma such as A2780 and A2780/Dx, sensitive and resistant to drugs, respectively (doxorubicin, taxol, etoposide, vincristine); IGROV-1 and IGROV-1/Pt, sensitive and resistant to platinum-based chemotherapy, respectively, were maintained in RPMI 1640 medium containing 10% FCS, 1% sodium pyruvate and 1% glutamine; • 4. Human melanoma MeWo and MeS 2.21, glioblastoma GBM, no small cell lung carcinomas A431, NCI—H460, osteosarcomas SAOS and U2OS were maintained in RPMI 1640 medium containing 10% FCS, 1% sodium pyruvate and 1% glutamine.
(§2) The cytotoxicity tests were carried out using NB4 or HL-60 cells in suspension (10000/well). The cells were seeded in a volume of 250 μl in 96 well plates and incubated for 24 hours at 37° C. […] The optical density was measured using a Multiskan spectrophotometer at 540 nm. […]
(§3) Cell survival was determined by incubation with ST1926 for 24 hours, 48 hours after the removal of the compound. […]

[2] = test system: no small cell lung carcinoma A431; experiment: Cytotoxicity test (sulphorodamine B), A431; type: cell-based; conditions: Homo sapiens, A-431, 24 h incubation, survival 48 h after removal
Text: as §1, §2, §3

osteosarcoma SAOS = experiment: Cytotoxicity test (sulphorodamine B), SAOS; type: cell-based; conditions: Homo sapiens, 24 h incubation, survival 48 h after removal
Text: as §1, §2, §3

[3] = test system: Human Promyelocytic Leukaemia HL-60 Cells; experiment: Cyto-fluorometric cell cycle analysis, HL-60; type: cell-based; conditions: for APOPTOSIS / G0/G1 / G2 + M / S: 3 days; for G0/G1 / G2 + M / S: percentage of cell cycle phase
Protocol: To evaluate the effect of the compound according to the invention, on various phases of the cell cycle, cyto-fluorometric cell cycle analyses were performed.
HL60 or NB4 cells were seeded onto plates at a density of 150.000 cells/ml in RPMI 1640 medium containing 10% FCS, the test compound (ST 1926) was added, […], in the presence or absence of sub-optimal doses of ATRA (5-10 nM for NB4 and 0.5 μM for HL60) in the dark and placed in an incubator for 3 days without changing the culture medium.
On the third day of treatment 500.000 cells were sampled, centrifuged at 180×g for 5 minutes, washed twice in calcium and magnesium free PBS. The cells (1×10^6/ml of fixative) were fixed for at least 1 hour in a fixation mixture comprised of acetone/methanol 1:4 v/v maintained at −20° C. and 50% of calcium and magnesium free PBS; then the cells were centrifuged, washed in calcium and magnesium free PBS, and again centrifuged and washed. The cellular precipitate was incubated for 30 minutes in the dark at room temperature with 200 μl of […] (100 μg/ml) and 200 μl of RNAse (150 KU/mg).
The samples with filtered through nylon filters (60-80 μm diameter) and analysed by cyto-fluorimeter FACScan (Becton Dickinson), acquiring 20000 events/sample, at an excitation wavelength of 488 nm and emission wavelength of 620 nm. The analysis of the percentages of the cell cycle phases was performed using a dedicated software package, Modfit v. 2.0 (Becton Dickinson).

[4] = test system: ornithine decarboxylase in mouse epidermis; conditions: in vivo; cited from earlier work

O=C(O)/C=C/c1ccc(-c2ccc(O)c(C34CC5CC(CC(C5)C3)C4)c2)cc1 [ST1926, E-4-(3-(1-adamantyl)-4-hydroxyphenyl)cinnamic acid]
IC50 [1]: 200 nM
IC50 [2]: 250 nM
IC50 (osteosarcoma SAOS): 250 nM
APOPTOSIS ([3]; HL-60, 0.0025 μM): 8
G0/G1 ([3]; HL-60, 0.0025 μM): 54.9
G2 + M ([3]; HL-60, 0.0025 μM): 11.7
S ([3]; HL-60, 0.0025 μM): 33.4
APOPTOSIS ([3]; HL-60, 0.005 μM): 14.0
G0/G1 ([3]; HL-60, 0.005 μM): 53.4
G2 + M ([3]; HL-60, 0.005 μM): 12.2
S ([3]; HL-60, 0.005 μM): 34.4
APOPTOSIS ([3]; HL-60, 0.01 μM): 12.5
G0/G1 ([3]; HL-60, 0.01 μM): 52.0
G2 + M ([3]; HL-60, 0.01 μM): 12.6
S ([3]; HL-60, 0.01 μM): 35.4
APOPTOSIS ([3]; HL-60, 0.05 μM): 13.0
G0/G1 ([3]; HL-60, 0.05 μM): 45.0
G2 + M ([3]; HL-60, 0.05 μM): 13.0
S ([3]; HL-60, 0.05 μM): 42.0
APOPTOSIS ([3]; HL-60, 0.1 μM): 27.5
G0/G1 ([3]; HL-60, 0.1 μM): 39.9
G2 + M ([3]; HL-60, 0.1 μM): 13.3
S ([3]; HL-60, 0.1 μM): 46.8
APOPTOSIS ([3]; HL-60, 0.5 μM): 82
APOPTOSIS ([3]; HL-60, 1 μM): 86.5
effect on HL-60 cells (in words) ([3]; HL-60, 0.5 and 1 μM, three days, cell cycle not measurable): strong pro-apoptotic effect
activity in the ODC assay compared with compound 1 (in words) [4]: lower activities
